The values below come from patent publication USRE40707E1, “Use of carbazole compounds for the treatment of congestive heart failure” (SB Pharmco Puerto Rico Inc., priority 1995, dated 2009).

Test [1] has as its system patients with CHF. The conditions noted are these: treatment of CHF; cited from earlier work.
The test system of test [2] is acute myocardial infarction. Particulars: rat model of acute myocardial infarction; cited from earlier work.
Test [3] has as its system patients with CHF. As to the kind of experiment: U.S. Carvedilol Heart Failure Trials: mortality studies in CHF patients. It is filed as in vivo, human. The conditions noted are these: for Risk reduction of mortality / Risk reduction, All Cause Mortality: vs placebo; for All Cause Mortality (%) / Risk reduction, All Cause Mortality: all patients; for All Cause Mortality (%): class II-IV CHF, intention-to-treat, placebo 8.2%; for Risk reduction, All Cause Mortality: 95% CI 42-81. An excerpt:
To determine if β-adrenergic blockade might inhibit the deleterious effects of the sympathetic nervous system on survival in heart failure (CHF), 1052 patients with CHF were prospectively enrolled into a multicenter trial program, in which the patients were randomly assigned (double-blind) to 6-12 months' treatment with placebo (PBO) or carvedilol (CRV). After a common screening period, patients with class II-IV CHF (see next paragraph for the definitions of the classification of CI) and an ejection fraction <0.35 were assigned to one of four protocols based on performance on a 6-minute walk test. PBO or CRV was added to existing therapy with digoxin, diuretics and an ACE inhibitor. All-cause mortality was monitored by a prospectively constituted Data and Safety Monitoring Board (DSMB). After 25 months of enrollment, the DSMB recommended termination of the program because of a favorable effect of CRV on survival. By […], mortality was 8.2% in the PBO group but only 2.9% in the CRV group (P=0.0001. Cochran-Mantel-Haensel analysis). This represented a reduction in risk of death by CRV of 67% (95% CI: 42% to 81%). The treatment effect was similar in patients with class II and class III-IV symptoms. Mortality was reduced in class II patients from 5.9% to 1.9%, a 68% reduction (95% CI: 20% to 97%) [P=0.015,), and in class III-IV patients from 11.0% to 4.2%. a 67% reduction (95% CI 30% to 84%), [P=0.004, a log-rank]. Importantly, the effect of CRV was similar in ischematic heart disease (risk reduced by 67%. P=0.003) and in nonischemic dilated cardiomyopathy (risk reduced by 67%. P=0.014). […] The treatment effect is seen across a broad range of severity and etiology of disease.
Patients on background therapy with diuretics. ACE inhibitors and/or digoxin were stratified on the basis of baseline […] exercise performance, into one of four trials: • study 220, a dose response study in moderate (NYHA II-IV) CHF with exercise testing as a primary endpoint • study 221, a dose titration study in moderate (NYHA II-IV) CI with exercise testing as a primary endpoint • study 239, a dose titration study in severe (NYHA III-IV) CHF with quality of life as a primary endpoint • study 240, a dose titration study in mild (NYHA II—III) CHF with progression of CHF as a primary endpoint
Sixty-four centers in the US participated in the trial program. All sites conducted protocols 239 and 240, while 33 performed protocol 220 and 31 performed protocol 221.
Although each trial had its own individual objectives, the overall program objective defined prospectively was evaluation of all-cause mortality. Based upon a projected enrollment of 1100 patients, the program had 90% power to detect a 50% reduction in mortality (two-sided) between carvedilol and placebo, assuming a mortality rate in the placebo group of 12% over the duration of the trials (α=0.05).
Randomization was preceded by a screening and challenge period common to the four protocols. The purpose of the screening period was to quality patients for study entry obtain reproducible baseline measurements, and stratify patients into the appropriate trial based on submaximal exercise testing. During the challenge period, patients received low-dose open-label carvedilol (6.25 mg b.i.d.) for two weeks. […] Patients tolerating low-dose carvedilol were then randomized to blinded medication (carvedilol or placebo) with the dose titrated over several weeks in the range of 6.25 to 50 mg b.i.d. (or equivalent level of placebo). The maintenance phase of each study ranged from six to 12 months, after which patients had the option of receiving open-label carvedilol in an extension study.
The analysis presented below corresponds to the data set on which the DSMB made the recommendation to terminate the trials. Included in this […] analysis are all patients enrolled in the US trials as of Jan. 20, […]; 624 receiving carvedilol and 356 placebo. […]

For test [4], the system named is acute myocardial infarction. Particulars: porcine model of acute myocardial infarction; cited from earlier work.
The test system of test [5] is acute myocardial infarction. The conditions noted are these: canine model of acute myocardial infarction; cited from earlier work.

Where two headings read alike, the source gives them in different places.

With `CC(C)NCC(O)COc1ccc(COCCOC(C)C)cc1` (centres unmarked) [bisoprolol], in the test on patients with CHF [1], the “mortality, drug-treated vs placebo-treated patients” value was “no difference in mortality”.
Turning to `COc1ccccc1OCCNCC(O)COc1cccc2[nH]c3ccccc3c12` (centres unmarked) [Carvedilol], the infarct size entry in test [2], in test [4] and in test [5] was “markedly reduces infarct size” each time. For the same molecule, the “Risk reduction of mortality” value with patients with CHF [3] (Class II CHF, 95% CI 20-97) turned out to be 68%; in the test on patients with CHF [3] (Class II CHF, 95% CI 20-97, listed as CRV), 68%; in the test with patients with CHF [3] (Class III-IV CHF, 95% CI 30-84) it was 66%; in the test on patients with CHF [3] (Class III-IV CHF, 95% CI 30-84, listed as CRV), 67%; with patients with CHF [3] (Ischemic Etiology, 95% CI 32-85), 67%; in the test with patients with CHF [3] (Ischemic Etiology, 95% CI 32-85, listed as CRV) it was 67%. For the same molecule, the “Risk reduction of mortality” value is recorded as 67% in the test with patients with CHF [3] (Non-Ischemic Etiology, 95% CI 20-86) and 67% in the test on patients with CHF [3] (Non-Ischemic Etiology, 95% CI 20-86, listed as CRV). The “Mortality (%)” value in the test on patients with CHF [3] (Class II CHF, placebo 5.9%) is “(1.9%)”; in the test on patients with CHF [3] (Class II CHF, placebo 5.9%, listed as CRV) it was 1.9%; in the test on patients with CHF [3] (Class III-IV CHF, placebo 11.0%), “(4.2%)”; in the test on patients with CHF [3] (Class III-IV CHF, placebo 11.0%, listed as CRV), 4.2%; in the test on patients with CHF [3] (Ischemic Etiology, placebo 8.9%) it was “(3.2%)”; in the test on patients with CHF [3] (Non-Ischemic Etiology, placebo 7.3%), “(2.5%)”. Moreover, the “All Cause Mortality (%)” value with patients with CHF [3] is listed as “(2.9%)”; in the test with patients with CHF [3] (listed as CRV), 2.9%. Further, the “Risk reduction, All Cause Mortality” value in the test on patients with CHF [3] and in the test on patients with CHF [3] (listed as CRV) was 67% each time.
In the case of `COCCc1ccc(OCC(O)CNC(C)C)cc1` (centres unmarked) [metoprolol], the “mortality, drug-treated vs placebo-treated patients” value in the test on patients with CHF [1] was “no difference in mortality”.
